Laboratory results taken from patent US8921267B2, “Safening 6-(trisubstituted phenyl)-4-amino-2-pyridinecarboxylate herbicide injury on cereal crops” (Dow AgroSciences LLC, priority 2008, dated 2014).

Experiments:
[1] = test system: kochia (Kochia scoparia L; KCHSC); test: Postemergence herbicidal activity, greenhouse, visual injury: kochia; assay type: in vivo; design: key: % visual injury: 0 = no injury, 100 = complete kill
Description: (§1) Evaluation of Postemergence Herbicidal Safening in Cereal Crops
(§2) Seeds of the desired test plant species were planted in Sun Gro MetroMix® 306 planting mixture, which typically has a pH of 6.0 to 6.8 and an organic matter content of about 30 percent, in plastic pots with a surface area of 103.2 square centimeters (cm^2). When required to ensure good germination and healthy plants, a fungicide treatment and/or other chemical or physical treatment was applied. The plants were grown for 7-36 days (d) in a greenhouse with an approximate 14-hour (h) photoperiod which was maintained at about 18° C. during the day and 17° C. during the night. Nutrients and water were added on a regular basis and supplemental lighting was provided with overhead metal halide 1000-Watt lamps as necessary. The plants were employed for testing when they reached the second or third true leaf stage.
(§3) Weighed amounts of esters (methyl) or salts (TEA [triethylammonium], K [potassium]) of 4-amino-3-chloro-6-(4-chloro-2-fluoro-3-methoxyphenyl)pyridine-2-carboxylic acid (Compound 1) were dissolved in a volume of 97:3 volume/volume (v/v) acetone/dimethylsulfoxide (DMSO) to obtain stock solutions. […] The concentrated stock solutions were diluted with an aqueous mixture of 1.5% v/v of Agri-dex crop oil concentrate to provide the appropriate application rates. Compound requirements are based upon a 12 mL application volume at a rate of 187 liters per hectare (L/ha). Stocks solutions of the safeners were prepared following the same procedure. Spray solutions of the safeners and experimental compound mixtures were prepared by adding the stock solutions to the appropriate amount of dilution solution to form a 12 mL spray solution with active ingredients in two-way combinations. Formulated compounds were applied to the plant material with an overhead Mandel track sprayer equipped with 8002E nozzles calibrated to deliver 187 L/ha over an application area of 0.503 square meters (m^2) at a spray height of 18 inches (43 centimeters (cm)) above average plant canopy. Control plants were sprayed in the same manner with the solvent blank.
(§4) The treated plants and control plants were placed in a greenhouse as described above and watered by sub-irrigation to prevent wash-off of the test compounds. After 20-22 d, the condition of the test plants as compared with that of the control plants was determined visually and scored on a scale of 0 to 100 percent where 0 corresponds to no injury and 100 corresponds to complete kill.
(§5) Colby's equation was used to determine the herbicidal effects expected from the mixtures (Colby, S. R. Calculation of the synergistic and antagonistic response of herbicide combinations. Weeds 1967, 15, 20-22.).
(§6) The following equation was used to calculate the expected activity of mixtures containing two active ingredients, A and B: Expected=A+B−(A×B/100)
(§7) A=observed efficacy of active ingredient A at the same concentration as used in the mixture.
(§8) B=observed efficacy of active ingredient B at the same concentration as used in the mixture.

barley (HORVW) = test: Postemergence herbicidal safening, greenhouse, visual injury: barley (HORVW)
[2] = test system: bird's-eye speedwell (Veronica persica L; VERPE); test: Postemergence herbicidal activity, greenhouse, visual injury: bird's-eye speedwell; assay type: in vivo; design: key: visual injury, 0–100%: 0 = no injury, 100 = complete kill
Summary of the method: (§9)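 Greenhouse, 18/17 °C, 14 h light; seedlings at 2–3 leaves; Compound 1 salts/ester ± safener in Agri-dex 1.5%, 187 L/ha overhead spray; sub-irrigation; visual % injury at 20-22 d; synergy via Colby.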

[3] = test system: Russian thistle (Salsola iberica L; SASKR); test: Postemergence herbicidal activity, greenhouse, visual injury: Russian thistle; assay type: in vivo; design: key: visual injury, 0–100%: 0 = no injury, 100 = complete kill
Summary of the method: as §9

[4] = test system: cleavers (Galium aparine L; GALAP); test: Postemergence herbicidal activity, greenhouse, visual injury: cleavers; assay type: in vivo; design: key: visual injury, 0–100%: 0 = no injury, 100 = complete kill
Summary of the method: as §9

[5] = test system: scented mayweed (Matricaria chamomila L; MATCH); test: Postemergence herbicidal activity, greenhouse, visual injury: scented mayweed; assay type: in vivo; design: key: % visual injury: 0 = no injury, 100 = complete kill
Description: as §1, §2, §3, §4, §5, §6, §7, §8

[6] = test system: chickweed (Stellaria media L; STEME); test: Postemergence herbicidal activity, greenhouse, visual injury: chickweed; assay type: in vivo; design: key: visual injury, 0–100%: 0 = no injury, 100 = complete kill
Summary of the method: as §9

[7] = test system: wild pansy (Viola tricolor L; VIOTR); test: Postemergence herbicidal activity, greenhouse, visual injury: wild pansy; assay type: in vivo; design: key: visual injury, 0–100%: 0 = no injury, 100 = complete kill
Summary of the method: as §9

[8] = test system: purple deadnettle (Lamium purpureum L; LAMPU); test: Postemergence herbicidal activity, greenhouse, visual injury: purple deadnettle; assay type: in vivo
Summary of the method: as §9

[9] = test system: wild buckwheat (Polygonum convolvulus L; POLCO); test: Postemergence herbicidal activity, greenhouse, visual injury: wild buckwheat; assay type: in vivo
Summary of the method: as §9

[10] = test system: wheat (Triticum aestivum L; TRZAS); test: Postemergence herbicidal safening, greenhouse, visual injury: wheat; assay type: in vivo
Summary of the method: as §9

[11] = test system: barley (Hordeum vulgare L; HORVS); test: Postemergence herbicidal safening, greenhouse, visual injury: barley; assay type: in vivo; design: key to HORVS Ob (Observed values): % visual injury: 0 = no injury, 100 = complete kill
Summary of the method: as §9

[12] = test system: wheat (Triticum aestivum L; TRZAW); test: Postemergence herbicidal safening, greenhouse, visual injury: wheat (TRZAW); assay type: in vivo
Description: as §1, §2, §3, §4, §5, §6, §7, §8

[13] = test system: corn poppy (Papaver rhoeas L; PAPRH); test: Postemergence herbicidal activity, greenhouse, visual injury: corn poppy; assay type: in vivo
Summary of the method: as §9

[14] = test system: durum wheat (Triticum durum L; TRZDU); test: Postemergence herbicidal safening, greenhouse, visual injury: durum wheat; assay type: in vivo
Description: as §1, §2, §3, §4, §5, §6, §7, §8

C=CCN(CC=C)C(=O)C(Cl)Cl [Dichlormid, N,N-diallyl-2,2-dichloroacetamide, reference compound]
KCHSC Ob ([1]; applied alone at 17.5 g/ha): 0%
KCHSC Ob ([1]; applied alone at 35 g/ha): 0%
KCHSC Ob ([1]; applied alone at 70 g/ha): 0%
KCHSC Ob ([1]; applied alone at 140 g/ha): 0%
HORVW Ob (Observed values) (barley (HORVW); safener 4.4 g/ha alone): 0%
HORVW Ob (Observed values) (barley (HORVW); safener 8.8 g/ha alone): 0%
HORVW Ob (Observed values) (barley (HORVW); safener 17.5 g/ha alone): 0%
HORVW Ob (Observed values) (barley (HORVW); safener 35 g/ha alone): 0%
VERPE Ob ([2]; applied alone at 17.5 g/ha): 0%
VERPE Ob ([2]; applied alone at 35 g/ha): 0%
VERPE Ob ([2]; applied alone at 70 g/ha): 0%
VERPE Ob ([2]; applied alone at 140 g/ha): 0%
SASKR Ob ([3]; applied alone at 17.5 g/ha): 0%
SASKR Ob ([3]; applied alone at 35 g/ha): 0%
SASKR Ob ([3]; applied alone at 70 g/ha): 0%
SASKR Ob ([3]; applied alone at 140 g/ha): 0%
GALAP Ob ([4]; applied alone at 17.5 g/ha): 0%
GALAP Ob ([4]; applied alone at 35 g/ha): 0%
GALAP Ob ([4]; applied alone at 70 g/ha): 0%
GALAP Ob ([4]; applied alone at 140 g/ha): 0%
MATCH Ob ([5]; applied alone at 17.5 g/ha): 0%
MATCH Ob ([5]; applied alone at 35 g/ha): 0%
MATCH Ob ([5]; applied alone at 70 g/ha): 0%
MATCH Ob ([5]; applied alone at 140 g/ha): 0%
STEME Ob ([6]; applied alone at 17.5 g/ha): 0%
STEME Ob ([6]; applied alone at 35 g/ha): 0%
STEME Ob ([6]; applied alone at 70 g/ha): 0%
STEME Ob ([6]; applied alone at 140 g/ha): 0%
VIOTR Ob ([7]; applied alone at 17.5 g/ha): 0%
VIOTR Ob ([7]; applied alone at 35 g/ha): 0%
VIOTR Ob ([7]; applied alone at 70 g/ha): 0%
VIOTR Ob ([7]; applied alone at 140 g/ha): 0%
LAMPU Ob ([8]; applied alone at 17.5 g/ha): 0%
LAMPU Ob ([8]; applied alone at 35 g/ha): 0%
LAMPU Ob ([8]; applied alone at 70 g/ha): 0%
LAMPU Ob ([8]; applied alone at 140 g/ha): 0%
LAMPU Ob (Observed values) ([8]; safener 4.4 g/ha alone): 0
LAMPU Ob (Observed values) ([8]; safener 8.8 g/ha alone): 0
LAMPU Ob (Observed values) ([8]; safener 17.5 g/ha alone): 0
LAMPU Ob (Observed values) ([8]; safener 35 g/ha alone): 0
POLCO Ob ([9]; applied alone at 17.5 g/ha): 0%
POLCO Ob ([9]; applied alone at 35 g/ha): 0%
POLCO Ob ([9]; applied alone at 70 g/ha): 0%
POLCO Ob ([9]; applied alone at 140 g/ha): 0%
TRZAS Ob ([10]; applied alone at 17.5 g/ha): 0%
TRZAS Ob ([10]; applied alone at 35 g/ha): 0%
TRZAS Ob ([10]; applied alone at 70 g/ha): 0%
TRZAS Ob ([10]; applied alone at 140 g/ha): 0%
HORVS Ob ([11]; applied alone at 17.5 g/ha): 0%
HORVS Ob ([11]; applied alone at 35 g/ha): 0%
HORVS Ob ([11]; applied alone at 70 g/ha): 0%
HORVS Ob ([11]; applied alone at 140 g/ha): 0%
HORVS Ob (Observed values) ([11]; safener 4.4 g/ha alone): 0
HORVS Ob (Observed values) ([11]; safener 8.8 g/ha alone): 0
HORVS Ob (Observed values) ([11]; safener 17.5 g/ha alone): 0
HORVS Ob (Observed values) ([11]; safener 35 g/ha alone): 0
TRZAW Ob (Observed values) ([12]; safener 4.4 g/ha alone): 0%
TRZAW Ob (Observed values) ([12]; safener 8.8 g/ha alone): 0%
TRZAW Ob (Observed values) ([12]; safener 17.5 g/ha alone): 0%
TRZAW Ob (Observed values) ([12]; safener 35 g/ha alone): 0%
PAPRH Ob ([13]; applied alone at 17.5 g/ha): 0%
PAPRH Ob ([13]; applied alone at 35 g/ha): 0%
PAPRH Ob ([13]; applied alone at 70 g/ha): 0%
PAPRH Ob ([13]; applied alone at 140 g/ha): 0%
PAPRH Ob (Observed values) ([13]; safener 4.4 g/ha alone): 0
PAPRH Ob (Observed values) ([13]; safener 8.8 g/ha alone): 0
PAPRH Ob (Observed values) ([13]; safener 17.5 g/ha alone): 0
PAPRH Ob (Observed values) ([13]; safener 35 g/ha alone): 0
TRZDU Ob (Observed values) ([14]; safener 4.4 g/ha alone): 0%
TRZDU Ob (Observed values) ([14]; safener 8.8 g/ha alone): 0%
TRZDU Ob (Observed values) ([14]; safener 17.5 g/ha alone): 0%
TRZDU Ob (Observed values) ([14]; safener 35 g/ha alone): 0%
